Measurements taken from ChEMBL document CHEMBL3046079, “Synthesis, herbicidal activity, and mode of action of IR 5790” (J Agric Food Chem, 2001).

Legend:
Sida spinosa = assay: Pre-emergence herbicidal activity against Sida spinosa assessed as injury at 50 g/ha applied at 24 hr post-sowing measured after 28 days relative to control; assay type: functional
Ammi majus [1] = assay: Post-emergence herbicidal activity against Amni maius assessed as injury at 50 g/ha applied at 15 days post-sowing measured after 15 days relative to control; assay type: functional
Panicum dichotomiflorum [2] = assay: Post-emergence herbicidal activity against Panicum dichotomiflorum assessed as injury at 150 g/ha applied at 15 days post-sowing measured after 15 days relative to control; assay type: functional
Veronica persica [3] = assay: Post-emergence herbicidal activity against Veronica persica assessed as injury at 50 g/ha applied at 15 days post-sowing measured after 15 days relative to control; assay type: functional
Matricaria chamomilla [4] = assay: Post-emergence herbicidal activity against Matricaria chamomilla assessed as injury at 50 g/ha applied at 15 days post-sowing measured after 15 days relative to control; assay type: functional
Veronica persica [5] = assay: Pre-emergence herbicidal activity against Veronica persica assessed as injury at 50 g/ha applied at 24 hr post-sowing measured after 28 days relative to control; assay type: functional
Glycine max = assay: Phytotoxicity against Glycine max (soybean) assessed as injury at 150 g/ha applied as post-emergent treatment at 15 days post-sowing measured after 15 days relative to control; assay type: organism-based; details: in vivo, other, 360 h
Beta vulgaris [6] = assay: Phytotoxicity against Beta vulgaris assessed as injury at 150 g/ha applied as post-emergent treatment at 15 days post-sowing measured after 15 days relative to control; assay type: organism-based; details: in vivo, other, 360 h
Sorghum bicolor [7] = assay: Post-emergence herbicidal activity against Sorghum bicolor assessed as injury at 15 g/ha applied at 15 days post-sowing measured after 15 days relative to control; assay type: functional
Digitaria sanguinalis [8] = assay: Post-emergence herbicidal activity against Digitaria sanguinalis (hairy crabgrass) assessed as injury at 50 g/ha applied at 15 days post-sowing measured after 15 days relative to control; assay type: functional
Stellaria media = assay: Post-emergence herbicidal activity against Stellaria media assessed as injury at 150 g/ha applied at 15 days post-sowing measured after 15 days relative to control; assay type: functional
Echinochloa crus-galli [9] = assay: Pre-emergence herbicidal activity against Echinochloa crus-galli (barnyard grass) assessed as injury at 50 g/ha applied at 24 hr post-sowing measured after 28 days relative to control; assay type: functional
Ipomoea purpurea [10] = assay: Post-emergence herbicidal activity against Ipomoea purpurea (common morning-glory) assessed as injury at 5 g/ha applied at 15 days post-sowing measured after 15 days relative to control; assay type: functional
Avena fatua = assay: Post-emergence herbicidal activity against Avena fatua assessed as injury at 15 g/ha applied at 15 days post-sowing measured after 15 days relative to control; assay type: functional
Setaria viridis = assay: Post-emergence herbicidal activity against Setaria viridis (green foxtail) assessed as injury at 150 g/ha applied at 15 days post-sowing measured after 15 days relative to control; assay type: functional
Chenopodium album = assay: Post-emergence herbicidal activity against Chenopodium album assessed as injury at 5 g/ha applied at 15 days post-sowing measured after 15 days relative to control; assay type: functional
Abutilon theophrasti = assay: Pre-emergence herbicidal activity against Abutilon theophrasti (velvetleaf) assessed as injury at 150 g/ha applied at 24 hr post-sowing measured after 28 days relative to control; assay type: functional
Ammi majus [11] = assay: Post-emergence herbicidal activity against Amni maius assessed as injury at 150 g/ha applied at 15 days post-sowing measured after 15 days relative to control; assay type: functional
Capsella bursa-pastoris = assay: Post-emergence herbicidal activity against Capsella bursa-pastoris assessed as injury at 50 g/ha applied at 15 days post-sowing measured after 15 days relative to control; assay type: functional
Amaranthus retroflexus [12] = assay: Post-emergence herbicidal activity against Amaranthus retroflexus assessed as injury at 150 g/ha applied at 15 days post-sowing measured after 15 days relative to control; assay type: functional
Digitaria sanguinalis [13] = assay: Post-emergence herbicidal activity against Digitaria sanguinalis (hairy crabgrass) assessed as injury at 150 g/ha applied at 15 days post-sowing measured after 15 days relative to control; assay type: functional
Sorghum bicolor [14] = assay: Pre-emergence herbicidal activity against Sorghum bicolor assessed as injury at 50 g/ha applied at 24 hr post-sowing measured after 28 days relative to control; assay type: functional
Alopecurus myosuroides = assay: Post-emergence herbicidal activity against Alopecurus myosuroides assessed as injury at 15 g/ha applied at 15 days post-sowing measured after 15 days relative to control; assay type: functional
Beta vulgaris [15] = assay: Phytotoxicity against Beta vulgaris assessed as injury at 50 g/ha applied as pre-emergent treatment at 24 hr post-sowing measured after 28 days relative to control; assay type: organism-based; details: in vivo, other, 672 h
Echinochloa crus-galli [16] = assay: Post-emergence herbicidal activity against Echinochloa crus-galli (barnyard grass) assessed as injury at 15 g/ha applied at 15 days post-sowing measured after 15 days relative to control; assay type: functional
Digitaria sanguinalis [17] = assay: Pre-emergence herbicidal activity against Digitaria sanguinalis (hairy crabgrass) assessed as injury at 50 g/ha applied at 24 hr post-sowing measured after 28 days relative to control; assay type: functional
Galium aparine = assay: Pre-emergence herbicidal activity against Galium aparine assessed as injury at 50 g/ha applied at 24 hr post-sowing measured after 28 days relative to control; assay type: functional
Ammi majus [18] = assay: Pre-emergence herbicidal activity against Amni maius assessed as injury at 150 g/ha applied at 24 hr post-sowing measured after 28 days relative to control; assay type: functional
Geranium dissectum = assay: Pre-emergence herbicidal activity against Geranium dissectum assessed as injury at 150 g/ha applied at 24 hr post-sowing measured after 28 days relative to control; assay type: functional
Xanthium strumarium = assay: Post-emergence herbicidal activity against Xanthium strumarium (cocklebur) assessed as injury at 50 g/ha applied at 15 days post-sowing measured after 15 days relative to control; assay type: functional
Amaranthus retroflexus [19] = assay: Pre-emergence herbicidal activity against Amaranthus retroflexus assessed as injury at 150 g/ha applied at 24 hr post-sowing measured after 28 days relative to control; assay type: functional
Portulaca oleracea = assay: Post-emergence herbicidal activity against Portulaca oleracea assessed as injury at 150 g/ha applied at 15 days post-sowing measured after 15 days relative to control; assay type: functional
Ipomoea purpurea [20] = assay: Post-emergence herbicidal activity against Ipomoea purpurea (common morning-glory) assessed as injury at 150 g/ha applied at 15 days post-sowing measured after 15 days relative to control; assay type: functional
Matricaria chamomilla [21] = assay: Pre-emergence herbicidal activity against Matricaria chamomilla assessed as injury at 150 g/ha applied at 24 hr post-sowing measured after 28 days relative to control; assay type: functional
Panicum dichotomiflorum [22] = assay: Post-emergence herbicidal activity against Panicum dichotomiflorum assessed as injury at 50 g/ha applied at 15 days post-sowing measured after 15 days relative to control; assay type: functional

C#CCOc1cc(-n2nc(C(C)(C)C)sc2=O)c(Cl)cc1Cl
Activity (Sida spinosa): 0%
Activity (Ammi majus [1]): 0%
Activity (Panicum dichotomiflorum [2]): 90%
Activity (Veronica persica [3]): 0%
Activity (Matricaria chamomilla [4]): 0%
Activity (Veronica persica [5]): 30%
Activity (Glycine max): 30%
Activity (Beta vulgaris [6]): 90%
Activity (Sorghum bicolor [7]): 10%
Activity (Digitaria sanguinalis [8]): 50%
Activity (Stellaria media): 0%
Activity (Echinochloa crus-galli [9]): 30%
Activity (Ipomoea purpurea [10]): 50%
Activity (Avena fatua): 0%
Activity (Setaria viridis): 70%
Activity (Chenopodium album): 10%
Activity (Abutilon theophrasti): 0%
Activity (Ammi majus [11]): 10%
Activity (Capsella bursa-pastoris): 10%
Activity (Amaranthus retroflexus [12]): 90%
Activity (Digitaria sanguinalis [13]): 70%
Activity (Sorghum bicolor [14]): 0%
Activity (Alopecurus myosuroides): 0%
Activity (Beta vulgaris [15]): 10%
Activity (Echinochloa crus-galli [16]): 0%
Activity (Digitaria sanguinalis [17]): 70%
Activity (Galium aparine): 0%
Activity (Ammi majus [18]): 0%
Activity (Geranium dissectum): 0%
Activity (Xanthium strumarium): 10%
Activity (Amaranthus retroflexus [19]): 90%
Activity (Portulaca oleracea): 90%
Activity (Ipomoea purpurea [20]): 90%
Activity (Matricaria chamomilla [21]): 50%
Activity (Panicum dichotomiflorum [22]): 50%
